This is an account of results in article PMC5464344, “Analgesic and anti‐inflammatory properties of novel, selective, and potent EP4 receptor antagonists” (Pharmacology Research & Perspectives, 2017).

Where two headings read alike, the source gives them in different places.

The target in assay [1] is Human EP4 (Homo sapiens, UniProt P35408). Put plainly: EP4 cAMP antagonist assay (HTRF), human EP4. As to conditions: read-out: cAMP Antagonism (hEP4) Human EP4 IC50. It is filed as cell-based. On the procedure:
Human EP4 (GenBank Accession # AY429109, Clone ID PER0400000, UMR cDNA Resource Center, Rolla, MO) was stably expressed in HEK293 cells. Rat EP4 cDNA (GenBank Accession# NM_03276) was cloned into pcDNA 3.1 vector and stably transfected into HEK293 cells. The cell lines were maintained in DMEM (invitrogen) supplemented with 10% fetal bovine serum (FBS), 1 mmol/L sodium pyruvate, 10 mmol/L HEPES, 500 μg/mL geneticin and 2 mmol/L L‐glutamine. Confluent cultures were grown at 37°C in an atmosphere containing 5% CO2. […] Immediately prior to the assay, cells were thawed with DMEM and suspended in cAMP assay buffer (HBSS with 0.1% BSA, 20 mmol/L HEPES and 200 μmol/L IBMX).
To measure the cAMP levels, cAMP‐d2 conjugate and anti cAMP‐cryptate conjugate in lysis buffer were incubated with the treated cells at room temperature for 1 h. […] The raw data were converted to cAMP (nmol/L) using a cAMP standard curve generated for each experiment. Data were analyzed using a 4‐parameter nonlinear logistic equation. Results are expressed as the geometric mean ± standard deviation or geometric mean ± standard error as noted.
Background: TR-FRET usually uses a lanthanide donor and a delayed reading to cut background.

In assay [2] the test system is male Lewis rats, MIA injected knee. Nature of the assay: Rat MIA model of pain (incapacitance testing). It is filed as in vivo. As to conditions: 1 h post dose, P < 0.05 by Dunnett's test. On the procedure: For the monoiodoacetate (MIA) and adjuvant induced arthritis (AIA) studies, male Lewis rats (Envigo, Indianapolis, IN) of approximately 8 weeks of age at the time of disease induction were used. For collagen induced arthritis studies (CIA) female Lewis rats (Charles River) weighing 150–170 g were used. Rats were housed in groups of 2 or 3 per cage and maintained in a constant temperature, and on a 12 h light/12 h dark cycle. Animals had free access to food and water at all times except during data collection.
The right knees of rats were injected with 0.3 mg of MIA (Sigma Aldrich) in 50 μL of saline and the left knees with 50 μL of saline on day zero. These intra‐articular injections are directly into the synovial cavity of the flexed knee joint through the patella ligament. Twelve days later, the rats were randomized into groups of five rats using body weight and the Block Randomized Allocation Tool. […] Reference compound CJ‐042,794 was also tested in the MIA model on day 14 post MIA injection at doses of 1, 3, 10, 30, and 50 mg/kg with the vehicle being 10% Solutol in PEG400 (n = 4 rats per group). The nonsteroidal anti‐inflammatory drug (NSAID) diclofenac was included in all studies at a dose of 5 mg/kg as a positive control. […] Pain was measured using incapacitance testing. […]

In assay [3] the target is T1, COX2 (h) (Homo sapiens, UniProt P35354).
T1 construct: CEREP (contract laboratory that ran the assay)
T1 sequence (P35354 18-604): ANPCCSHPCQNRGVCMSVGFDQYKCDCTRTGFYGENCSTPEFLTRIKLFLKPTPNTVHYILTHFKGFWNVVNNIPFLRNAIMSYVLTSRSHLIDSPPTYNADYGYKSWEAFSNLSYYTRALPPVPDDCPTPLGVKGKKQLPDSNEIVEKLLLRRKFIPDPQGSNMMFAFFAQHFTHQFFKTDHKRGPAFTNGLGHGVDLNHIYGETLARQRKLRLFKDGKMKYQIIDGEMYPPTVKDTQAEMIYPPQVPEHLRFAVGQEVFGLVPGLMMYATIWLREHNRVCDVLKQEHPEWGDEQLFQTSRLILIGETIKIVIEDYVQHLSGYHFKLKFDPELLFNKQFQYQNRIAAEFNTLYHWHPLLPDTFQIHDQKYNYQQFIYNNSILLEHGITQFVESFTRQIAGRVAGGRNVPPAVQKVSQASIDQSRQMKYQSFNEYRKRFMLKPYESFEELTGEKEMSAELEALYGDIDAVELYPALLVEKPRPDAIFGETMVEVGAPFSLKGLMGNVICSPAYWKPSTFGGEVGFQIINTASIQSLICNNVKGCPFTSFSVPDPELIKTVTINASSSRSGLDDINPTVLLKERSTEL
Nature of the assay: Off-target activity (CEREP), COX2. Type of assay: biochemical. As to conditions: 10 μmol/L; obtained at CEREP (Blanco et al. 2016c); read-out: % Inh COX2 (h). An excerpt: (§1) The off‐target activity related to prostaglandin pathway (Table 2) were obtained at CEREP (Blanco et al. 2016c).

The target of assay [4] is T2, FP(h); agonist radioligand (Homo sapiens, UniProt P43088).
T2 construct: CEREP (contract laboratory that ran the assay)
T2 sequence (P43088 whole entry): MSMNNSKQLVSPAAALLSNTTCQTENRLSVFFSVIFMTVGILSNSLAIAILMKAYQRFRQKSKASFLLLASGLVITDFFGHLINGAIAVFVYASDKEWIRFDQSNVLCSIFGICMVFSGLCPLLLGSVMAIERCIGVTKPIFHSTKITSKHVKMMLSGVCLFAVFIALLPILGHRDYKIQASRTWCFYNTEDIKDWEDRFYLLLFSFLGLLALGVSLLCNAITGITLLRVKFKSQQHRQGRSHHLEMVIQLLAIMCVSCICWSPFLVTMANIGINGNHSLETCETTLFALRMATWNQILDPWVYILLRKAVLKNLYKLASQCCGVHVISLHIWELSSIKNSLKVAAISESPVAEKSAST
Put plainly: Off-target activity (CEREP), FP. It is filed as binding. Conditions: 10 μmol/L; obtained at CEREP (Blanco et al. 2016c).
Source text: as §1

Assay [5] has as its target T3, TP (TXA2/PGH2) (h); antagonist effect (Homo sapiens, UniProt P21731).
T3 construct: CEREP (contract laboratory that ran the assay)
T3 sequence (P21731 1-343): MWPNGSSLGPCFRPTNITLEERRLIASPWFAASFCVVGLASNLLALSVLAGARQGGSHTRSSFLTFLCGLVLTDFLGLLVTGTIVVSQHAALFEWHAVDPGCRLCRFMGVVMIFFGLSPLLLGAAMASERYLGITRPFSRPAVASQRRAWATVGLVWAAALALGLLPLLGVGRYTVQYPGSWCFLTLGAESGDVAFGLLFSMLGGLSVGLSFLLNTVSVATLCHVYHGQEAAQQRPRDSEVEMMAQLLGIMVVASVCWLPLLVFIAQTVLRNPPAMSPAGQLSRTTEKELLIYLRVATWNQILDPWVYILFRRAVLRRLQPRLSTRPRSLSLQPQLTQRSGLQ
Put plainly: Off-target activity (CEREP), TP antagonist effect. It is filed as biochemical. As to conditions: 10 μmol/L; obtained at CEREP (Blanco et al. 2016c).
Source text: as §1

Assay [6] concerns the target T4, TP (TXA2/PGH2) (h); agonist effect (Homo sapiens, UniProt P21731).
T4 construct: CEREP (contract laboratory that ran the assay)
T4 sequence (P21731 1-343): T3 sequence (P21731 1-343)
Put plainly: Off-target activity (CEREP), TP agonist effect. It is filed as biochemical. As to conditions: 10 μmol/L; obtained at CEREP (Blanco et al. 2016c).
Source text: as §1

Assay [7] concerns the target T5, DP1(h); agonist radioligand (Homo sapiens, UniProt Q13258).
T5 construct: CEREP (contract laboratory that ran the assay)
T5 sequence (Q13258 1-359): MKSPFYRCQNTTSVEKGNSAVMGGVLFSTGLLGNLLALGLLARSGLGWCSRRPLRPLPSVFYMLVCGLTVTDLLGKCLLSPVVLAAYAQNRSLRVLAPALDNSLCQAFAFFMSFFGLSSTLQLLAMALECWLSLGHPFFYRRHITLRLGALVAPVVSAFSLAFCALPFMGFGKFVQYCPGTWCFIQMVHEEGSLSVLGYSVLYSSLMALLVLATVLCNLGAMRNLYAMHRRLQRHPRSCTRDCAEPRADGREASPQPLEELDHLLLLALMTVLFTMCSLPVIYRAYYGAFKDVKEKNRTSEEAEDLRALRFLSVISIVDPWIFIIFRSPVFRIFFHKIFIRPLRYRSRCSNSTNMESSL
Nature of the assay: Off-target activity (CEREP), DP1. Type of assay: binding. As to conditions: 10 μmol/L; obtained at CEREP (Blanco et al. 2016c).
Source text: as §1

Chain of Human EP4 (P35408 whole entry): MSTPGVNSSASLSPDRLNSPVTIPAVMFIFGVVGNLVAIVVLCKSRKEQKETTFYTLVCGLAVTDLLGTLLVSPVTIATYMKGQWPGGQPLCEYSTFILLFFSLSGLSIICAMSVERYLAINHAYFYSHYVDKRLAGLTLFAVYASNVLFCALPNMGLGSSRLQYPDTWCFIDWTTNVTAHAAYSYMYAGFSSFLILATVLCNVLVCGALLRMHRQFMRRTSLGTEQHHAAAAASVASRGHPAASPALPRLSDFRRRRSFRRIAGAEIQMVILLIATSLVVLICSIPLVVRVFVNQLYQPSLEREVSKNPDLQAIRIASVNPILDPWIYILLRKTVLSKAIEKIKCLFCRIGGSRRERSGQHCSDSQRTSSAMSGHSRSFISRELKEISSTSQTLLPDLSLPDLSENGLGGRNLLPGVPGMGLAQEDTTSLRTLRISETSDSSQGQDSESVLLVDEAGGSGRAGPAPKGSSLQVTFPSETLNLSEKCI

As for `C[C@H](NC(=O)c1cc(Cl)ccc1Oc1ccc(F)cc1)c1ccc(C(=O)O)cc1` [CJ‐042,794, reference compound], in assay [1], the half-maximal inhibitory concentration (IC50) was determined as 4.5 ± 1.85 nM. The “pain efficacy (incapacitance testing) versus vehicle” value in assay [2] (3, 10, 30, and 50 mg/kg oral) was “significantly different from vehicle”.

As to `Cc1ccc(N2CCC(O)CC2)nc1C(=O)Nc1c(C)cc(C(=O)O)cc1C` [Compound 1], the inhibition at 10 µM in assay [3] is -10%. Besides, the “% Inh FP(h); agonist radioligand” value in assay [4] is on record as −2.00%. Besides, the “% Inh TP (TXA2/PGH2) (h); antagonist effect” value in assay [5] was −12.00%. Moreover, in assay [1], the IC50 was approximately 6 nM. In assay [6], the “% Inh TP (TXA2/PGH2) (h); agonist effect” value was −4.00%. Further, the “% Inh DP1(h); agonist radioligand” value in assay [7] was 0.00%.

As to `C[C@H](NC(=O)[C@H]1CCCCN1CCOc1ccccc1)c1ccc(C(=O)O)cc1` [Compound 2], the inhibition at 10 µM in assay [3] is -17%. Further, the “% Inh FP(h); agonist radioligand” value in assay [4] is −9.00%. The “% Inh TP (TXA2/PGH2) (h); antagonist effect” value in assay [5] was −12.00%. For the same compound, the “pain efficacy (normalization of hind paw weight distribution, incapacitance testing)” value in assay [2] (1, 3, and 10 mg/kg oral) is listed as “effective”. Also, the “% Inh TP (TXA2/PGH2) (h); agonist effect” value in assay [6] is on record as −2.00%. In addition, the “% Inh DP1(h); agonist radioligand” value in assay [7] was −4.00%.

In the case of `Cc1ccc(-c2cccc(CO)c2)nc1C(=O)Nc1c(C)ccc(C(=O)O)c1C` [Compound 3], in assay [1] (HEK293 cells stably expressing human EP4, PGE2 at EC80, geometric mean ± SEM), the IC50 turned out to be 2.4 ± 1.4 nM.

By IC50 is commonly meant the concentration that inhibits the measured activity by half.
